Results reported in patent US20050123603A1, “Natural menaquinone 7 compositions” (Natural ASA, priority 2003, published 2005).

What was measured:
[1] = tested on: osteocalcin; assay: vitamin K status of bone, cOC/ucOC ratio, during 6-week supplementation; type: in vivo, human
Experimental: (§1) An open study was conducted in which 12 volunteers were randomized in two groups receiving either 180 μg MK-7 (menaquinone 7, 0.27 μmol) or 150 μg K1 (0.33 μmol) per day. The MK-7 was obtained from 2 nattoK2 capsules (Natural ASA) per day, the K1 from a pharmacological preparation (Roche). The supplements were taken at 18.00 h of each day during the 6-week study period. Blood was taken between 08.00 and 09.00 h of days 0 (baseline), 3, 7, 14, 21, 28, 35, and 42. A non-treated control group (n=3) served as a reference group, with blood drawings on days 0, 14, 28, and 42.
(§2) Measurements: vitamin K1, MK-7, under-carboxylated osteocalcin (ucOC) and carboxylated osteocalcin (cOC).
(§3) Study population: 6 men and 6 women, aged 55-60 (women postmenopausal). Non-treated controls: 1 man, 2 women in the same age range.
(§4) These values are needed to calculate the vitamin K-status in bone (the ratio cOC/ucOC) and to estimate the bone metabolic activity (cOC+ucOC). Here a remarkable difference between the effects of K1 and nattoK2 (i.e.: MK-7) was found: whereas cOC was increased by K1 supplementation, it was decreased by nattoK2. The importance of this finding will become clear from FIGS. 9 and 10.

[2] = serum vitamin K (K1, MK-7) during 6-week daily supplementation with nattoK2 capsules or K1; type: in vivo, human
Experimental: as §1, §2, §3
MK-7 and K1 have different molecular weights (650 and 450, respectively). Therefore, all doses and concentrations were calculated on a molar basis. Since the daily dose of MK-7 from natto was 18% lower than that from K1 (0.27 and 0.33 μmol/day, respectively), it should be kept in mind that the expected results for natto capsules are similarly lower compared to those for K1. […] The normal ranges for K1 and MK-7 in non-treated subjects are between 500 and 1000 pmol/L (FIG. 5C). […] Due to the limited number of participants, the mean baseline levels in the various groups may differ.

[3] = tested on: osteocalcin; assay: bone turnover measured as ucOC+cOC during 6-week supplementation; type: in vivo, human
Experimental: as §1, §2, §3, §4

[4] = tested on: carboxylated osteocalcin (cOC); assay: serum carboxylated osteocalcin (cOC) during 6-week supplementation; type: in vivo, human; conditions: 6-week daily supplementation, K1 150 μg or 180 μg MK-7 from nattoK2, FIG. 8
Experimental: as §1, §2, §3

[5] = tested on: under-carboxylated osteocalcin (ucOC); assay: serum under-carboxylated osteocalcin (ucOC) during 6-week supplementation; type: in vivo, human
Experimental: as §1, §2, §3

[6] = tested on: bone loss; conditions: postmenopausal women, intervention studies; cited from earlier work

Structure (SMILES) | time at which mean cOC/ucOC ratio crosses the K1 curve ([1]; menaquinone 7 supplementation, ratio increased gradually, no levelling off) | serum K1 level, plateau value ([2]; K1 150 μg (0.33 μmol) per day, blood taken about 15 h after intake, mean) | serum K1 level at 15 h after ingestion ([2]; K1 150 μg per day) | time to plateau of serum K1 ([2]; K1 150 μg per day) | increase in total vitamin K status relative to baseline (mean plateau value) ([2]; K1 150 μg per day, 6 weeks, FIG. 6) | serum K1 level at baseline ([2]; K1 group, day 0, mean) | time to plateau levels of the cOC/ucOC ratio ([1]; K1 supplementation) | bone turnover measured as ucOC+cOC, end of regimen ([3]; K1 150 μg per day, 6 weeks) | bone turnover measured as ucOC+cOC, start of regimen ([3]; K1 group) | treatment-induced change in serum carboxylated osteocalcin (cOC) [4] | time to reach decreased ucOC value ([5]; K1 150 μg per day) | serum ucOC after treatment ([5]; K1 150 μg per day, value reached within three days) | serum ucOC at baseline ([5]; K1 group) | lower rate of bone loss in supplemented groups [6]
CC(C)=CCC/C(C)=C/CC/C(C)=C/CC/C(C)=C/CC/C(C)=C/CC/C(C)=C/CC/C(C)=C/CC1=C(C)C(=O)c2ccccc2C1=O [menaquinone 7, (all-E)-2-(3,7,11,15,19,23,27-Heptamethyl-2,6,10,14,18,22,26-octacosaheptaenyl)-3-methyl-1,4-naphthalenedione] | 5 week |  |  |  |  |  |  |  |  |  |  |  |  | 
CC1=C(C/C=C(\C)CCC[C@H](C)CCC[C@H](C)CCCC(C)C)C(=O)c2ccccc2C1=O [K1] |  | around 2000 pmol/L | near-baseline levels | within the first three days | 1500 pmol/L | 816 pmol/L | 3 days | 5.33 | 5.28 | increased | within three days | 1.7 µg/L | 2.1 µg/L | 40%
